{"source": "patent US7332482B2", "about": "“Method for treating benign prostatic hyperplasia” (BioXell S.p.A., priority 2003, dated 2008)", "key": {"rat ventral prostate [1]": {"test_system": "rat ventral prostate", "assay": "Ventral prostate growth in intact adult rats", "source_text": "Rat ventral prostate glands were rapidly excised out, weighed and quickly frozen in dry ice."}, "[2]": {"test_system": "prostate volume in patients with BPH", "assay": "Randomised double blind placebo controlled study in patients with BPH", "assay_type": "in vivo, human", "experimental": "A randomised double blind placebo controlled parallel group study was performed to determine the effect of Compound A (1-alpha-fluoro-25-hydroxy-16,23E-diene-26,27-bishomo-20-epi-cholecalciferol) in patients with BPH.\nThe principal inclusion criterion was that male patients be diagnosed with BPH and have prostate volume >40 ml as determined by transrectal ultrasound (TRUS).\nStatistical methods: primary efficacy analyses were planned on Per-Protocol (PP) Population and, as support, the same analyses were to be done on Intent-to-treat population. Patients evaluatable for the Per-Protocol analysis were all randomized patients compliant to protocol criteria who completed the whole course of study without major protocol violations and have valid assessments of prostate volume. Patients valid for intent-to-treat (ITT) population were all randomized patients who received at least one dose of trial medication and for whom the prostate volume at baseline and at 12 weeks visit were available.\nAll patients randomized who took at least one dose of study drug were evaluated for safety analysis.\nThe primary efficacy variable was the percentage change of prostate volume, measured by centralized MRI axial scanning. An ANOVA model was used for the analysis, with treatment and center as fixed effects.\nStudy participants received 150 μg capsule (as per Example 4A with drug omitted in the case of placebo) once daily in the morning. The treatment period was 12 weeks."}, "[3]": {"assay": "Serum calcium measurement in rats", "assay_type": "in vivo, rat", "settings": "for calcemia: T-replaced castrated rats", "experimental": "(§1) Male Sprague Dawley rats (28 days old) were purchased from Charles River Laboratories (Calco, Lecco, Italy). All animal experimentation described was conducted in accord with accepted standards of animal care. Castration was performed via the scrotal route under ketamine/xylazine anaesthesia.\nSerum calcium levels were measured with a commercially available colorimetric assay (Sigma), according to the manufacturers' instructions."}, "5α reductase type 2": {"target": "T1, 5α reductase type 2 (Homo sapiens, UniProt P31213)", "T1 construct": "host or cells: CHO 1829", "T1 sequence (P31213 1-254)": "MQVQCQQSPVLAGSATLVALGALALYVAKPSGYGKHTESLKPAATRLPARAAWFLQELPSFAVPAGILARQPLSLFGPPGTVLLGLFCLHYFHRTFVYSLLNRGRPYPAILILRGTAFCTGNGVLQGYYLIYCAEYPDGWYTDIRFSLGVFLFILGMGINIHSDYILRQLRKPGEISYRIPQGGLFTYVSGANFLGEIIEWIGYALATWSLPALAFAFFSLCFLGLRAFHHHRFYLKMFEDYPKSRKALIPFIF", "assay": "5α reductase inhibition test in CHO 1829 cells", "assay_type": "cell-based", "settings": "10^−9 to 10^−5 M", "experimental": "CHO-1827 and CHO-1829 cells, transfected with 5α reductase type 1 (5αR-1) or type 2 (5αR-2), respectively (see Steers W. Urology (2001) 58 p 17-24), were maintained in Ham's F12 medium supplemented with 5% FCS.\n5α reductase inhibition assay was performed using CHO 1827 cells, transfected with 5αR-1, or CHO 1829 cells, transfected with 5αR-2, as described (see Guarna A, et al. Journal of Medicinal Chemistry (2000) 43 3718-3735.). Compound A was added in a concentration range from 10^−9 to 10^−5 M, using finasteride as a control inhibitor in each experiment."}, "rat ventral prostate [4]": {"test_system": "rat ventral prostate", "assay": "Ventral prostate growth in castrated, T enanthate-supplemented rats", "assay_type": "in vivo", "settings": "castrated rats + T enanthate 30 mg/Kg/week; oral, 9 administrations; Compound A 10-300 μg/Kg, finasteride 10, 40 mg/Kg", "experimental": "as §1"}, "bladder strips": {"test_system": "bladder strips", "assay": "In vitro contractility of bladder strips from BOO rats", "set-up": "species or system rat", "settings": "strips from treated rats", "experimental": "After completion of the cystometries, the rats were sacrificed by carbon monoxide asphyxiation followed by exsanguination. The abdomen was accessed through a lower midline incision whereafter the symphysis was opened. The bladder was carefully dissected free, and immediately placed in chilled Krebs solution, and strip preparations were dissected.\nThe bladder and urethra were separated at the level of the bladder neck, and semicircular strips were prepared from the middle third of the detrusor (1×2×5 mm). All preparations were used immediately after removal.\nThe strips were transferred to 5 ml tissue baths containing Krebs solution. The Krebs solution was maintained at 37° C. and bubbled continuously with a mixture of 95% O2 and 5% CO2, resulting in a pH of 7.4. The strips were suspended between two L-shaped hooks by means of silk ligatures. One hook was connected to a movable unit allowing adjustment of passive tension, and the other to a Grass FT03C (Grass Instruments Co, MA, USA) force transducer. Isometric tension was recorded using a Grass polygraph (7D). After mounting, the strips were stretched to a passive tension of 4 mN (the same tension for all preparations) and allowed to equilibrate for 45-60 min before further experiments were performed.\nElectrical field stimulation (EFS) was accomplished by means of two platinum electrodes placed on either side of the preparations, and was performed using a Grass S48 or S88 stimulator, delivering single square wave pulses at selected frequencies. The train duration was 5 s, the pulse duration 0.8 ms, and the stimulation interval 2 min. The polarity of the electrodes was shifted after each pulse by means of a polarity changing unit.\nEach experiment was started by exposing the preparations to a high K^+ (124 mM) Krebs solution until two reproducible contractions are obtained. […]"}}, "data": [{"smiles": "C=C1/C(=C\\C=C2/CCC[C@]3(C)C([C@@H](C)C/C=C/C(O)(CC)CC)=CC[C@@H]23)C[C@@H](O)C[C@@H]1F", "note": "[Compound A, 1-alpha-fluoro-25-hydroxy-16,23E-diene-26,27-bishomo-20-epi-cholecalciferol]", "values": [{"measurement": "maximal reduction of ventral prostate weight", "setting": "rat ventral prostate [1]; one month oral, 300 μg/Kg", "value": 30, "unit": "%"}, {"measurement": "effect on ventral prostate weight", "setting": "rat ventral prostate [1]; one-month oral treatment, 10-300 μg/Kg", "value": "significantly decreased"}, {"measurement": "severe adverse events", "setting": "[2]; 12 weeks", "value": "no severe adverse event was reported"}, {"measurement": "proportion of responders", "setting": "[2]; ITT population", "value": 28.8, "unit": "%"}, {"measurement": "reduction of prostate volume vs placebo", "setting": "[2]; ITT population, axial scanning", "value": "more effective than placebo"}, {"measurement": "mean difference of prostate volume vs baseline in non responder patients", "setting": "[2]; PP population", "value": "3.93±0.8"}, {"measurement": "mean difference of prostate volume vs baseline in unchanged patients", "setting": "[2]; PP population", "value": "−0.35±2.3"}, {"measurement": "mean reduction of prostate volume vs baseline in responder patients", "setting": "[2]; PP population", "value": "−6.88±2.5"}, {"measurement": "percentage change of prostate volume, paraxial acquisition", "setting": "[2]; PP population", "value": "−1.30±6.9", "unit": "%"}, {"measurement": "percentage change of prostate volume, transitional scanning", "setting": "[2]; PP population", "value": "−0.22±9.6", "unit": "%"}, {"measurement": "proportion of patients not responder", "setting": "[2]; PP population", "value": 7.5, "unit": "%"}, {"measurement": "proportion of responders", "setting": "[2]; PP population", "value": 27.5, "unit": "%"}, {"measurement": "proportion of unchanged patients", "setting": "[2]; PP population", "value": 65, "unit": "%"}, {"measurement": "percentage change in prostate volume, axial scanning", "setting": "[2]; PP population, 150 μg once daily, 12 weeks, MRI", "value": "−1.89±5.2", "unit": "%"}, {"measurement": "estimate of difference between treatments (Compound A minus placebo), percentage change in prostate volume", "setting": "[2]; PP population, axial scanning, 95% confidence limit −9.54 and −4.94", "value": "−7.24"}, {"measurement": "number of patients with adverse events related to treatment", "setting": "[2]; safety population", "value": 3}, {"measurement": "patients with adverse events related to treatment", "setting": "[2]; safety population", "value": 5.26, "unit": "%"}, {"measurement": "number of patients with at least one adverse event", "setting": "[2]; safety population, 57 randomised", "value": 17}, {"measurement": "calciuria values over the course of the study", "setting": "[2]; vs Placebo group", "value": "did not differ significantly"}, {"measurement": "calcemia", "setting": "[3]; 10 μg/Kg", "value": "10.16 ± 0.24", "unit": "mg/dL"}, {"measurement": "calcemia", "setting": "[3]; 30 μg/Kg", "value": "9.87 ± 0.15", "unit": "mg/dL"}, {"measurement": "calcemia", "setting": "[3]; 100 μg/Kg", "value": "10.55 ± 0.18", "unit": "mg/dL"}, {"measurement": "calcemia", "setting": "[3]; 300 μg/Kg", "value": "10.85 ± 0.1", "unit": "mg/dL"}, {"measurement": "other side effects", "setting": "[3]; all rat protocols, oral", "value": "No other discernible side effects"}, {"measurement": "hypercalcemia", "setting": "[3]; all rat protocols, oral 10-300 μg/Kg", "value": "very modest hypercalcemia only at the highest dose tested"}, {"measurement": "interference with 5α reductase type 2", "setting": "5α reductase type 2", "value": "did not interfere with either isoenzyme up to the micromolar range"}, {"measurement": "effect on T-stimulated prostate over-growth (ventral prostate weight)", "setting": "rat ventral prostate [4]", "value": "completely blunted"}, {"measurement": "response of bladder strips to EFS", "setting": "bladder strips", "value": "beneficial effect"}, {"measurement": "response of bladder strips to carbachol", "setting": "bladder strips", "value": "beneficial effect"}, {"measurement": "K response of bladder strips", "setting": "bladder strips; high K+ 124 mM", "value": "beneficial effect"}]}]}
